System: isolated human stratum corneum (SC)
Experiment: DSC lipid disorganization (shift of melting transition temperatures) of treated stratum corneum
Conditions: 15 minutes per treatment, 75% RH, RT
Experimental: Various compositions (alkaline versus acidic) and treatment protocols were tested and compared to determine which compositions and protocols produced the greatest degree of lipid disorganization, which is a common method for estimating the desquamation efficacy. All DSC experiments were performed on isolated human stratum corneum (SC). The SC was prepared using a standard protocol. Human abdominal skin remaining from plastic surgery was obtained in frozen form. Subcutaneous fat was removed and the dermis was separated from epidermis by plunging the skin into hot water (56° C.) for 1-2 min. The remaining viable epidermis was removed by tryptic digestion at 37° C. overnight. The SC was dried and stored at room temperature and ambient humidity. […]
The degree of lipid disorganization following treatment can be conveniently monitored by the shifts of the melting transition temperatures measured by Differential Scanning Calorimetry (DSC). […]
The maxima of the endothermic peaks corresponding to lipid phase transitions are determined using dedicated software (TA Universal Analysis). The peak position and the transition enthalpy are determined with respect to a manually defined linear baseline. […] The shifts of the melting peak positions (ΔTm(T2) and ΔTm(T3)) are calculated with respect to reference thermogrammes obtained with untreated or vehicle-treated samples. […]

**Q.** How did the ΔT (Example 3, ΔTeffective=0.7·ΔTm(T2)+0.3ΔTm(T3) vs untreated or vehicle-treated SC, 0.1 gram, decrease of 2° C. considered significant) turn out when O=C(O)CO [70% GA, glycolic acid] was run?
**A.** −4.6

**Q.** What about the ΔT (Example 4, same manner as Example 3, different alkaline agents) of the same compound?
**A.** −7.1

Reference: US20200030202A1, “TWO-STEP TREATMENT FOR DESQUAMATION OF SKIN” (L'OREAL, priority 2018, published 2020)
